Data reported in paper PMC8346516 (Nature Communications, 2021).
pKd: −log10 of the molar value.

Target: T1, Lsm12 (Homo sapiens, UniProt Q3MHD2)
T1 construct: hLsm12-HisE.coli: 6×His-tagged human Lsm12 (195 residues in full length) purified from E. coli
Experiment: competition […]-NAADP radioligand binding with purified protein; also competition pull-down with immobilized NAADP (Kd […])

T1 sequence (Q3MHD2 whole entry): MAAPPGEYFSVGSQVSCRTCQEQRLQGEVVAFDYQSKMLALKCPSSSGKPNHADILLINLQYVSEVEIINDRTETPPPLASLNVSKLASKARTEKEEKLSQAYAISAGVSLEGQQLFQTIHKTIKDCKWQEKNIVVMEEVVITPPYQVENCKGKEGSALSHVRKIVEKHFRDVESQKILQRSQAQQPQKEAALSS

`Nc1ncnc2c1ncn2[C@@H]1O[C@H](COP(=O)(O)OP(=O)(O)OC[C@H]2O[C@@H]([n+]3cccc(C(=O)[O-])c3)[C@H](O)[C@@H]2O)[C@@H](O)[C@H]1OP(=O)(O)O` [NAADP] was tested. Which pKd did it give?
The pKd was about 7.70.
